{
  "source": "patent US20240262835A1",
  "about": "“PRMT5 INHIBITING COMPOUNDS AND USES THEREOF” (ANTENGENE DISCOVERY LIMITED, priority 2023, published 2024)",
  "key": {"[1]": {"assay": "Liver microsome metabolic stability (LMS) assay, mouse", "conditions": "for T1/2 of LMS, M: mouse liver microsome 0.5 mg protein/mL, 1 μM, NADPH"}, "PRMT5/MEP50": {"molecular_target": "PRMT5/MEP50 (Homo sapiens (Human), UniProt O14744)", "sequence (O14744 whole entry)": "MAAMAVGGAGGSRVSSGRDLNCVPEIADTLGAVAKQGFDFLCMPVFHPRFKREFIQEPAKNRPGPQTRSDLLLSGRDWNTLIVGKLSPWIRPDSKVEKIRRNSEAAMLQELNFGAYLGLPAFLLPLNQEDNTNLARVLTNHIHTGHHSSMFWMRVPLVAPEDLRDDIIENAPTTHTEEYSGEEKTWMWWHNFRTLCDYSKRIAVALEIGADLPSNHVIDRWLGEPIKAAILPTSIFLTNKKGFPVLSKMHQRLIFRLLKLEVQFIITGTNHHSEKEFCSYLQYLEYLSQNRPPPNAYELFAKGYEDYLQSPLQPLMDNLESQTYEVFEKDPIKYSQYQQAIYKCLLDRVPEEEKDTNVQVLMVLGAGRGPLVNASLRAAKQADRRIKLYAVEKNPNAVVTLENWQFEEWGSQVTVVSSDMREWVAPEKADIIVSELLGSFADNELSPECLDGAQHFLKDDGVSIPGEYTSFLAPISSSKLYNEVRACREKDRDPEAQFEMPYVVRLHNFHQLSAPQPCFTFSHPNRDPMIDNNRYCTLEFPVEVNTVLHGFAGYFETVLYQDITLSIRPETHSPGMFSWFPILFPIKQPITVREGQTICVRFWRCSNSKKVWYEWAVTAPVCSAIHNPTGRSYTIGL", "sequence (Q9BQA1 whole entry partner)": "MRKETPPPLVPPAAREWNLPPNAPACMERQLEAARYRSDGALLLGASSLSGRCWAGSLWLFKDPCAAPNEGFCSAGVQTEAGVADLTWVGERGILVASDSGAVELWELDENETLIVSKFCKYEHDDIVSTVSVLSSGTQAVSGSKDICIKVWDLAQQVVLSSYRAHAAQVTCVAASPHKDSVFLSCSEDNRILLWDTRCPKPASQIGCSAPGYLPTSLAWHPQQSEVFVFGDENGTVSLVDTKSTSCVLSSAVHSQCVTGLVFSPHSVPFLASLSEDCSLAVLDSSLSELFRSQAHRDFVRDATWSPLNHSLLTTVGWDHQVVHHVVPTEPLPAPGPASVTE", "assay": "MTase-Glo methyl transferase assay (PRMT5 inhibition)", "type": "biochemical", "conditions": "50 nM PRMT5/MEP50, 25 μM SAM, 5 μM Histone H4 peptide (1-21), read-out: IC50 for PRMT5 inhibiting", "procedure": "The PRMT5 inhibitory activity of test compounds was determined using the MTase-Glo™ assay (Promega), which monitors the product (S-adenosyl homocysteine or SAH) of methyltransferase reactions. The PRMT5 MTase-Glo assays were conducted in a 384-well white ProxiPlate (PerkinElmer, catalog no.: 6008280) in a total volume of 12 μL. The PRMT5 enzymatic reaction (in 4 μL) contained 50 nM PRMT5/MEP50 (Reaction Biology Corp, catalog no.: HMT-22-148), 25 μM S-adenosyl methionine (SAM, Promega), 5 μM Histone H4 peptide (1-21) (BPS Bioscience, catalog no.: 52018-2) and five-fold serially diluted compounds in a reaction buffer of 50 mM Tris (pH 8.0), 50 mM NaCl, 0.01% Tween 20, 0.01% BSA, and 1 mM DTT. The test compounds were pre-incubated with PRMT5/MEP50 and Histone H4 peptide for 20 minutes at room temperature before the addition of SAM to initiate the PRMT5 reaction. The reaction was allowed to proceed for 1 hour at 37° C. and was terminated by 2 μL of 3× MTase-Glo™ Reagent (Promega) and 150 μM EPZ015666 (Selleck, catalog no.: 1616391-65-1). After a 30-minute incubation at room temperature, 6 μL of MTase-Glo™ Detection Solution (Promega) was added and the plate was incubated at room temperature for an additional 30 minutes. The light signal corresponding to the amount of SAH produced by the PRMT5 reaction was subsequently measured using an Envision multimode reader (PerkinElmer). IC50 and Ki values were obtained by analyzing dose-response curves using GraphPad Prism."}, "[2]": {"molecular_target": "hERG potassium ion channel (Homo sapiens (Human), UniProt Q12809)", "sequence (Q12809 whole entry)": "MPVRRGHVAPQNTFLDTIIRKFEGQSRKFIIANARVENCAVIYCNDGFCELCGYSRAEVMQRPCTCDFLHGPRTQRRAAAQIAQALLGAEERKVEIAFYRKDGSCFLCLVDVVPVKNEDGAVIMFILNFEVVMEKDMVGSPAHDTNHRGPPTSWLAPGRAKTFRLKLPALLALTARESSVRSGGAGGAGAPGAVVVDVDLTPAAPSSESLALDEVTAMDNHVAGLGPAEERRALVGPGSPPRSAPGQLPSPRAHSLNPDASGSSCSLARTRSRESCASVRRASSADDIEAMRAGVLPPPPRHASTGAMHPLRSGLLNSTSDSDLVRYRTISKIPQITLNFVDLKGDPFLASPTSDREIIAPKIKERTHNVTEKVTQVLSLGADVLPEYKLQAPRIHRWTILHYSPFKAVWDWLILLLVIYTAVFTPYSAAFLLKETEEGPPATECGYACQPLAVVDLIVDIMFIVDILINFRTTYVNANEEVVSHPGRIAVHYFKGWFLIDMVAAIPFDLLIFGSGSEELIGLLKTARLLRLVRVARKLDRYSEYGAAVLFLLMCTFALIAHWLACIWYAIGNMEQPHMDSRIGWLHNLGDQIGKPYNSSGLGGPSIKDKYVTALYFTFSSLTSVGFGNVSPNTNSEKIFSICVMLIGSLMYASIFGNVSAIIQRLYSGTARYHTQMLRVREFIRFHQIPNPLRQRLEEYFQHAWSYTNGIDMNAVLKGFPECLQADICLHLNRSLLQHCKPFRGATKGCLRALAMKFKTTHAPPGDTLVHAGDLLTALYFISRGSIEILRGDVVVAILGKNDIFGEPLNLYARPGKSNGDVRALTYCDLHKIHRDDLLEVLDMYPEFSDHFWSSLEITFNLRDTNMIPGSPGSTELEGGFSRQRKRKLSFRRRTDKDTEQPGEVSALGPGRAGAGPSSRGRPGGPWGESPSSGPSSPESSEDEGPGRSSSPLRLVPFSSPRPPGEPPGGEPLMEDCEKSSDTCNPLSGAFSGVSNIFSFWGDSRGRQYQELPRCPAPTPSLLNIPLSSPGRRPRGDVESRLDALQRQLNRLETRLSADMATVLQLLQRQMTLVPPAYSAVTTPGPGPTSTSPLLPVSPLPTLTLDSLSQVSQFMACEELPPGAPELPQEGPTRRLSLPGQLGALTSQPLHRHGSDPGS", "assay": "hERG potassium ion channel inhibition assay (automated patch-clamp, CHO-hERG cells)", "type": "cell-based", "conditions": "Qpatch, highest test concentration 40.00 μM", "procedure": "Drug-hERG interaction was measured by automated patch-clamp methods, with cisapride as positive control.\n1.1 CHO-hERG cells were cultured in 175 cm^2 culture bottle. After the cell density grew to 60-80%, the culture medium was removed, washed with 7 mL of phosphate buffered saline (PBS), and then digested with 3 mL Detachin.\n1.2 After the digestion was complete, 7 mL culture solution was added for neutralization, and then centrifuged, the clear solution was sucked, and 5 mL culture solution was added for re-suspension to ensure the cell density was 2˜5×10^6/mL.\nThe process of single-cell high-impedance sealing and whole-cell pattern formation was all automatically completed by Qpatch instrument. After obtaining whole-cell recording mode, the cell was pinching at −80 millivolts. Before giving a 5-second +40 millivolt depolarization stimulus, a 50-millisecond pre-voltage of −50 millivolts was given first, and then repolarized to −50 millivolts for 5 seconds. Go back to −80 millivolts. This voltage stimulation was applied every 15 seconds, recorded for 2 minutes, then extracellular fluid was given and recorded for 5 minutes, and then the administration process began. The concentration of test compound was given from the lowest test concentration for 2.5 minutes per test concentration. After continuous administration of all concentrations, the positive control 3 μM cisapride was given. At least 2 cells were tested for each concentration (n≥2).\n4.1 The compound mother liquor was diluted with DMSO, and 10 μL compound stock solution was added to 20 μL DMSO solution, which was continuously 3-fold diluted to 6 DMSO-concentrations.\n4.2 4 μL of test compounds in 6 DMSO-concentrations were added to 396 μL extracellular solution and were 100-fold diluted to 6 intermediate concentrations. Then, 80 μL of test compounds in 6 intermediate concentrations were added to 320 μL extracellular solution and were 5-fold diluted to the final concentration to be tested.\n4.3 The highest test concentration was 40.00 μM, and six test concentrations were 40.00, 13.33, 4.44, 1.48, 0.49, 0.16 μM, respectively.\n4.5 Entire dilution process for test compound preparation was performed by Bravo instrument.\nThe experimental data were analyzed by GraphPad Prism 5.0 software."}, "[3]": {"conditions": "microsomes; for T1/2 of LMS, D / CLint (mic) D: dog"}, "[4]": {"conditions": "microsomes; for T1/2 of LMS, C / CLint (mic) C: cynomolgus monkey"}, "[5]": {"tested_on": "cryopreserved hepatocytes", "assay": "Hepatic metabolic stability (HMS) assay, dog hepatocytes", "conditions": "for T1/2 (hepatocytes) D / CLint (liver) D: dog hepatocytes; for T1/2 (hepatocytes) D: 1 μM test compound (3 μM positive control); for CLint (liver) D: scaled to liver; for CLint (hep) D: dog, hepatocytes", "method": "1) 10 mM test compounds were provided.\n2) 30 mM positive control stock solutions: Dissolved accurate amount of positive control compounds in dimethyl sulfoxide (DMSO).\n3) 1000× Stock Solution: Diluted 10 mM test compounds and 30 mM positive control compounds to 1 mM and 3 mM with DMSO in 96-well plates.\n4) 100× Dosing Solution: Diluted 1 mM test compounds and 3 mM positive control compounds to 100 μM and 300 μM dosing solutions with ACN.\n5) Preparation of 0.5×10^6/mL cells suspension: cryopreserved cells were thawed, isolated and suspended in Incubation Medium, then diluted with pre-warmed Incubation Medium to 0.5×10^6 cells/mL.\n6) Add 198 μL of pre-warmed cell suspensions in 96-well plates.\n7) Preparation of Quenching Plate: Transfer 125 μL of stop solution in a set of pre-labeled 96-well plates.\n8) Spike 2 μL dosing solution to each well of 96-well plates in duplicate.\n9) For TO Samples, mix to achieve a homogenous suspension for about 1 min, then immediately transfer 25 μL of each sample into well containing 125 μL of ice-cold stop solution followed by mixing.\n10) Incubate all plates at 37° C. in a 95% humidified incubator at 5% CO2 to start the reactions with constant shaking.\n11) At 15, 30, 60 and 90 min, mix samples and then transfer 25 μL of each sample at each time point to well containing 125 μL of ice-cold stop solution followed by mixing.\n12) Medium Control (MC) sample plates (labeled as TO-MC and T90-MC) are prepared in the same way as cell incubation except that medium was used instead of cell suspension.\n13) At each corresponding time point, stop the reactions by removing the plates from incubator and mixing with 125 μL of ice-cold stop solution.\n14) Vortex the plates immediately on a plate shaker at 600 rpm for 10 minutes. Then, centrifuge all sample plates at 3220×g for 20 min at 4° C.\n15) After centrifugation, 80 μL/well of supernatant in the sample plates are transferred to another set of pre-labeled 96-well plates which containing 240 μL of ultra pure water according to the plate map.\n16) Analytical plates are sealed and store at 4° C. until LC-MS/MS analysis.\nThe remaining percents of test articles after incubation were calculated by the follow equations:\nUse the following equation of first order kinetics to calculate T1/2 and CLint:"}, "[6]": {"tested_on": "cryopreserved hepatocytes", "assay": "Hepatic metabolic stability (HMS) assay, cynomolgus monkey hepatocytes", "conditions": "for T1/2 (hepatocytes) C / CLint (liver) C: cynomolgus monkey hepatocytes; for T1/2 (hepatocytes) C: 1 μM test compound (3 μM positive control); for CLint (liver) C: scaled to liver; for CLint (hep) C: cynomolgus monkey, hepatocytes"}, "[7]": {"tested_on": "cryopreserved hepatocytes", "assay": "Hepatic metabolic stability (HMS) assay, human hepatocytes", "conditions": "for T1/2 (hepatocytes) H / CLint (liver) H: human hepatocytes; for T1/2 (hepatocytes) H: 1 μM test compound (3 μM positive control); for CLint (liver) H: scaled to liver; for CLint (hep) H: human, hepatocytes"}},
  "data": [
    {"smiles": "CN(C(=O)c1ccc2nc(N)c3cncn3c2c1)[C@@H]1COc2cc(C(F)(F)F)ccc21", "note": "[Compound 12]", "values": [
      {"measurement": "half-life at 1 μM", "setting": "[1]; mouse, liver microsomes", "result": 1.14, "unit": "h"},
      {"measurement": "IC50", "setting": "PRMT5/MEP50", "result": 26, "unit": "nM"},
      {"measurement": "IC50", "setting": "[2]", "result": 5380, "unit": "nM"}
    ]},
    {"smiles": "CN(C(=O)c1ccc2nc(N)c3cncn3c2c1)C1COc2cc(C(F)(F)F)ccc21", "note": "(stereo not shown) [Compound 17]", "values": [
      {"measurement": "T1/2 of LMS, D", "setting": "[3]", "result": ">2.42", "unit": "h"},
      {"measurement": "T1/2 of LMS, C", "setting": "[4]", "result": 1.07, "unit": "h"},
      {"measurement": "IC50", "setting": "PRMT5/MEP50", "result": 12, "unit": "nM"},
      {"measurement": "IC50", "setting": "[2]", "result": 12800, "unit": "nM"}
    ]},
    {"smiles": "CN(C(=O)c1cc2c(cn1)nc(N)c1cncn12)C1COc2cc(C(F)(F)F)ccc21", "note": "(stereo not shown) [Compound 19]", "values": [
      {"measurement": "CLint (mic) D", "setting": "[3]", "result": "<9.6", "unit": "µL/min/mg"},
      {"measurement": "T1/2 of LMS, D", "setting": "[3]", "result": ">2.42", "unit": "h"},
      {"measurement": "CLint (liver) D", "setting": "[3]", "result": "<13.8", "unit": "mL/min/kg"},
      {"measurement": "T1/2 (hepatocytes) D", "setting": "[5]", "result": ">3.613", "unit": "h"},
      {"measurement": "CLint (liver) D", "setting": "[5]", "result": "<44", "unit": "mL/min/kg"},
      {"measurement": "CLint (hep) D", "setting": "[5]", "result": "<6.4", "unit": "μL/min/10^6"},
      {"measurement": "T1/2 of LMS, M", "setting": "[1]", "result": 2, "unit": "h"},
      {"measurement": "T1/2 (hepatocytes) C", "setting": "[6]", "result": 3.552, "unit": "h"},
      {"measurement": "CLint (liver) C", "setting": "[6]", "result": 23.4, "unit": "mL/min/kg"},
      {"measurement": "CLint (hep) C", "setting": "[6]", "result": 6.5, "unit": "μL/min/10^6"},
      {"measurement": "T1/2 (hepatocytes) H", "setting": "[7]", "result": ">3.613", "unit": "h"},
      {"measurement": "CLint (liver) H", "setting": "[7]", "result": "<17.8", "unit": "mL/min/kg"},
      {"measurement": "CLint (hep) H", "setting": "[7]", "result": "<6.4", "unit": "μL/min/10^6"},
      {"measurement": "CLint (mic) C", "setting": "[4]", "result": "<9.6", "unit": "µL/min/mg"},
      {"measurement": "T1/2 of LMS, C", "setting": "[4]", "result": ">2.42", "unit": "h"},
      {"measurement": "CLint (liver) C", "setting": "[4]", "result": "<13.0", "unit": "mL/min/kg"},
      {"measurement": "IC50", "setting": "PRMT5/MEP50", "result": 25, "unit": "nM"},
      {"measurement": "IC50", "setting": "[2]", "result": 13500, "unit": "nM"}
    ]},
    {"smiles": "CN(C(=O)c1cc2c(cn1)nc(N)c1cncn12)C1COc2cc(C(F)(F)F)ccc21", "note": "(stereo not shown) [Compound 21]", "values": [
      {"measurement": "CLint (mic) D", "setting": "[3]", "result": "<9.6", "unit": "µL/min/mg"},
      {"measurement": "T1/2 of LMS, D", "setting": "[3]", "result": ">2.42", "unit": "h"},
      {"measurement": "CLint (liver) D", "setting": "[3]", "result": "<13.8", "unit": "mL/min/kg"},
      {"measurement": "T1/2 (hepatocytes) D", "setting": "[5]", "result": ">3.613", "unit": "h"},
      {"measurement": "CLint (liver) D", "setting": "[5]", "result": "<44", "unit": "mL/min/kg"},
      {"measurement": "CLint (hep) D", "setting": "[5]", "result": "<6.4", "unit": "μL/min/10^6"},
      {"measurement": "T1/2 of LMS, M", "setting": "[1]", "result": 1.82, "unit": "h"},
      {"measurement": "T1/2 (hepatocytes) C", "setting": "[6]", "result": ">3.613", "unit": "h"},
      {"measurement": "CLint (liver) C", "setting": "[6]", "result": "<23", "unit": "mL/min/kg"},
      {"measurement": "CLint (hep) C", "setting": "[6]", "result": "<6.4", "unit": "μL/min/10^6"},
      {"measurement": "T1/2 (hepatocytes) H", "setting": "[7]", "result": ">3.613", "unit": "h"},
      {"measurement": "CLint (liver) H", "setting": "[7]", "result": "<17.8", "unit": "mL/min/kg"},
      {"measurement": "CLint (hep) H", "setting": "[7]", "result": "<6.4", "unit": "μL/min/10^6"},
      {"measurement": "CLint (mic) C", "setting": "[4]", "result": "<9.6", "unit": "µL/min/mg"},
      {"measurement": "T1/2 of LMS, C", "setting": "[4]", "result": ">2.42", "unit": "h"},
      {"measurement": "CLint (liver) C", "setting": "[4]", "result": "<13.0", "unit": "mL/min/kg"},
      {"measurement": "IC50", "setting": "PRMT5/MEP50", "result": 25, "unit": "nM"},
      {"measurement": "IC50", "setting": "[2]", "result": 13600, "unit": "nM"}
    ]},
    {"smiles": "CN(C(=O)c1cc2c(cn1)nc(N)c1cncn12)C1CC(F)(F)c2cc(C(F)(F)F)ccc21", "note": "(stereo not shown) [Compound 24]", "values": [
      {"measurement": "T1/2 (hepatocytes) D", "setting": "[5]", "result": 3.577, "unit": "h"},
      {"measurement": "CLint (liver) D", "setting": "[5]", "result": 44.4, "unit": "mL/min/kg"},
      {"measurement": "CLint (hep) D", "setting": "[5]", "result": 6.5, "unit": "μL/min/10^6"},
      {"measurement": "T1/2 of LMS, M", "setting": "[1]", "result": ">2.42", "unit": "h"},
      {"measurement": "T1/2 (hepatocytes) C", "setting": "[6]", "result": 2.193, "unit": "h"},
      {"measurement": "CLint (liver) C", "setting": "[6]", "result": 37.9, "unit": "mL/min/kg"},
      {"measurement": "CLint (hep) C", "setting": "[6]", "result": 10.5, "unit": "μL/min/10^6"},
      {"measurement": "T1/2 (hepatocytes) H", "setting": "[7]", "result": ">3.613", "unit": "h"},
      {"measurement": "CLint (liver) H", "setting": "[7]", "result": "<17.8", "unit": "mL/min/kg"},
      {"measurement": "CLint (hep) H", "setting": "[7]", "result": "<6.4", "unit": "μL/min/10^6"},
      {"measurement": "IC50", "setting": "PRMT5/MEP50", "result": 14, "unit": "nM"},
      {"measurement": "IC50", "setting": "[2]", "result": 24800, "unit": "nM"}
    ]}
  ]
}
